Reference: patent publication US11214803B2, “Modulators of YAP1 expression” (Ionis Pharmaceuticals, Inc., priority 2019, dated 2022)
pIC50: −log10 of the molar value. “And” between values parts separate entries of the source, which are not always exact repeats. Identical values can stand only once. Strand notation (5' to 3'): a small letter for the sugar, then the base; units joined by * are phosphorothioate-linked, units joined directly phosphodiester-linked; [ ] holds rarer units or linkages, { } end groups; capitals alone tell only the bases. k = constrained ethyl (cEt); [5mC] = 5-methylcytosine; d = 2'-deoxy (DNA)

Experiments:
[1] = Cynomolgus monkey tolerability, kidney and liver function markers (Example 34); details: cynomolgus monkeys, 35 mg/kg subcutaneously, day 44
Method: (§1) Prior to the study, the monkeys were kept in quarantine during which the animals were observed daily for general health. The monkeys were 2-4 years old and weighed 2-4 kg. Eleven groups of 4 randomly assigned male cynomolgus monkeys each were injected subcutaneously with Ionis oligonucleotide or saline in a clock-wise rotation between four different sites on the back. Following loading doses on days 1, 3, 5 and 7, the monkeys were dosed once per week (on days 14, 21, 28, 35, and 42) with 35 mg/kg of Ionis oligonucleotide.
(§2) To evaluate the effect of Ionis oligonucleotides on hepatic and kidney function, blood samples were collected from all the study groups on day 44. The monkeys were fasted overnight prior to blood collection. Blood was collected in tubes without anticoagulant for serum separation. The tubes were kept at room temperature for a minimum of 90 minutes and then centrifuged at 3000 rpm for 10 minutes to obtain serum. Levels of various liver function markers were measured using a Toshiba 200FR NEO chemistry analyzer (Toshiba Co., Japan).

Yap1 mRNA [2] = assay: Dose-dependent inhibition of human Yap1 in SNU-449 cells (Example 9, RTS36584); assay type: cell-based; details: free uptake; for % UTC (Yap1 mRNA): approximately 48 hours; for pIC50: linear regression on a log/linear plot
Method in brief: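 SNU-449 cells (10,000/well) took up modified oligonucleotides by free uptake at a range of doses for about 48 h. Yap1 mRNA was quantified with primer-probe set RTS36584, normalised to RIBOGREEN total RNA and expressed as % untreated control; IC50 from linear regression on log/linear plot.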

[3] = cynomolgus monkey, in vivo, sc, 35 mg/kg
Method: as §1, §2

[4] = Cynomolgus monkey tolerability, hematology (Example 34); assay type: in vivo, cynomolgus monkeys
Method: To evaluate any effect of Ionis oligonucleotides in cynomolgus monkeys on hematologic parameters, blood samples of approximately 0.5 mL of blood was collected from each of the available study animals on day 44. The samples were collected in tubes containing K2-EDTA. Samples were analyzed for red blood cell (RBC) count, Hemoglobin (HGB), Hematocrit (HCT), Mean corpuscular volume (MCV), mean corpuscular hemoglobin (MCH), mean corpuscular hemoglobin concentration (MCHC), RBC Distribution Width (RCDW), reticulocyte count (Retic), platelet count (PLT), mean platelet volume (MPV), white blood cells (WBC) count, individual white blood cell counts, such as that of monocytes (MON), neutrophils (NEU), lymphocytes (LYM), eosinophils (EOS), basophils (BAS), and large unstained cells (LUC) using an ADVIA2120i hematology analyzer (Siemens, USA).

Yap1 mRNA [5] = assay: Inhibition of human Yap1 mRNA in SNU449 hepatocellular carcinoma xenograft tumors (Example 26); assay type: in vivo; details: SNU449 xenografts in NSG mice, 50 mg/kg twice weekly for five days, relative to PBS treated animals
Method in brief: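 Female NSG mice bearing subcutaneous SNU449 xenografts (about 100 mm^3) dosed with modified oligonucleotides at 50 mg/kg twice weekly for five days, four per group. Tumour Yap1 mRNA measured by RT-qPCR, normalized to actin-beta, expressed as % of PBS-treated controls.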

Yap1 mRNA [6] = assay: Dose-dependent inhibition of human Yap1 in A-431 cells (Example 24, 11,000 cells per well, RTS36584, normalized to GAPDH); assay type: cell-based; details: free uptake, 48 hours; for Yap1 mRNA, % UTC: RTS36584, normalized to GAPDH
Method: Modified oligonucleotides described in the studies above were tested at various doses in A-431 cells. Cultured A-431 cells at a density of 11,000 cells per well were treated using free uptake with modified oligonucleotides diluted to concentrations described in the tables below. After approximately 48 hours, Yap1 mRNA levels were measured as previously described using the Human Yap1 primer-probe set RTS36584. Yap1 mRNA levels were normalized to GAPDH content, as measured by primer probe set RTS104 (forward sequence […], designated herein as SEQ ID NO.: 17; reverse sequence […], designated herein as SEQ ID NO.: 18; probe sequence […], designated herein as SEQ ID NO.: 19). Results are presented in the tables below as percent control of the amount of Yap1 mRNA relative to untreated control cells (% UTC). IC50s were calculated using a linear regression on a log/linear plot of the data in excel.

[7] = Cynomolgus monkey tolerability, coagulation (Example 34); assay type: in vivo; details: cynomolgus monkeys, 35 mg/kg subcutaneously, day 44
Method: To evaluate effect of Ionis modified oligonucleotides on coagulation in cynomolgus monkeys, blood samples of approximately 0.9 mL were collected from each of the available study animals on day 44. The samples were collected in tubes containing 3.2% sodium citrate. Coagulation parameters tested include Activated partial thromboplastin time (APTT), prothrombin time (PT) and Figrinogen (FIB).

[8] = cynomolgus monkey, in vivo, sc, 35 mg/kg

1198439 (AGTGTATGTCAGAAGA; sugar, 5-methylcytosine, phosphorothioate modifications, further chemistry not given here) [compound 1198439]
ALB [1]: 4.0 g/dL
ALP [1]: 1298 IU/L
ALT [1]: 40 IU/L
AST [1]: 65 IU/L
BUN [1]: 24 mg/dL
CREA [1]: 0.9 mg/dL
GGT [1]: 63 IU/L
GLO [1]: 2.8 g/dL
GLU [1]: 115 mg/dL
HDL [1]: 82 mg/dL
LDL [1]: 59 mg/dL
TBIL [1]: 0.2 mg/dL
TG [1]: 28 mg/dL
TP [1]: 6.8 g/dL
% UTC (Yap1 mRNA) (Yap1 mRNA [2]; 31.3 nM): 44 % UTC
% UTC (Yap1 mRNA) (Yap1 mRNA [2]; 125.0 nM): 21 % UTC
% UTC (Yap1 mRNA) (Yap1 mRNA [2]; 500.0 nM): 5 % UTC
% UTC (Yap1 mRNA) (Yap1 mRNA [2]; 2000.00 nM): 2 % UTC
pIC50 (Yap1 mRNA [2]): > 7.52
A/G ratio [3]: 1.4
BAS [4, 8]: 0.3%
EOS [4, 8]: 1.5%
HCT [4, 8]: 48%
HGB [4, 8]: 14 g/dL
LUC [4, 8]: 0.6%
LYM [4, 8]: 68%
MCH [4, 8]: 22 pg
MCHC [4, 8]: 28 g/dL
MCV [4, 8]: 79 fL
MON [4, 8]: 2.9%
NEU [4, 8]: 27%
PLT [4, 8]: 367 10^3/μL
RBC [4, 8]: 6e+06 µL⁻¹
RCDW [4, 8]: 12%
Retic [4, 8]: 1.2%
WBC [4, 8]: 10300 µL⁻¹
MPV ([4]; cynomolgus monkeys, 35 mg/kg subcutaneously, day 44): 7.6 fL
Yap1 mRNA in tumors, % control (Yap1 mRNA [5]): 51 % control
Yap1 mRNA, % UTC (Yap1 mRNA [6]; 0.002 μM): 0 % UTC
Yap1 mRNA, % UTC (Yap1 mRNA [6]; 0.008 μM): 1 % UTC
Yap1 mRNA, % UTC (Yap1 mRNA [6]; 0.04 μM): 11 % UTC
Yap1 mRNA, % UTC (Yap1 mRNA [6]; 0.2 μM): 65 % UTC
Yap1 mRNA, % UTC (Yap1 mRNA [6]; 1 μM): 93 % UTC
pIC50 (Yap1 mRNA [6]; linear regression on a log/linear plot): 7.70
APTT [7]: 19 s
FIB [7]: 246 mg/dL
PT [7]: 10 s

715487 (kA*kT*kT*dA*d[5mC]*dT*dT*d[5mC]*dA*dT*dA*dG*d[5mC]*kT*kT*kA) [compound 715487]
% UTC (Yap1 mRNA) (Yap1 mRNA [2]; 125.0 nM): 47 % UTC and 44 % UTC and 56 % UTC and 53 % UTC and 73 % UTC and 70 % UTC and 62 % UTC and 48 % UTC
pIC50 (Yap1 mRNA [2]): 6.40 and 6.52 and 6.70
Yap1 mRNA in tumors, % control (Yap1 mRNA [5]): 61 % control
